Among the data in the Bradley open melting point set (2014) are melting point values, retold here.

Where “and” joins values, the source holds several entries; their conditions need not be identical. Identical values can stand only once.

Consider `CC12CCC(=O)CC1CCC1C2CCC2(C)C1CCC21OCCO1` (stereo not drawn), for which the melting point was determined as 188 °C. To `CC(=O)OCCOC(C)=O` [ethylene_glycol_diacetate] belongs -41 °C.

On to `O=C(NC(Cc1ccccc1)C(=O)O)OCc1ccccc1[N+](=O)[O-]` (stereo not drawn) [N-{[(2-nitrobenzyl)oxy]carbonyl}phenylalanine], for which the melting point turned out to be 141 °C. Regarding `Cc1ccccc1-c1ccccc1` [1-methyl-2-phenylbenzene], the melting point amounted to 0 °C. In turn, `Cc1cccc2cc[nH]c12` [7-methylindole] had a melting point of 84 °C. For `C=C(C)c1ccc(C(=C)C)cc1` [p-diisopropenylbenzene], the melting point is 66 °C. The figure for `CCCCc1ccc(C#Cc2ccc(CCCC)cc2)cc1` [1-n-butyl-4-[(4-butylphenyl)ethynyl]benzene] is 41 °C; for `O=[N+]([O-])c1ccc(Cl)c(Cl)c1` [3,4-dichloronitrobenzene] it is 41 °C (2×) and 41.2 °C; for `CC(C)Nc1ccc(Nc2ccccc2)cc1` [N-isopropyl-n'-phenyl-p-phenylenediamine] it is 77 °C. To `COc1ccc2c(c1)CC2O` (stereo not drawn) [3-methoxybicyclo[4.2.0]octa-1,3,5-trien-7-ol] belongs 38 °C; to `C/C(=C\C=C\c1ccccc1)C(=O)OC(=O)/C(C)=C/C=C/c1ccccc1` [(2E,4E)-2-methyl-5-phenylpenta-2,4-dienoic anhydride], 113 °C.

For the compound `CCCCCCC(O)CCCCCCCCCCC(=O)O` (stereo not drawn) [12-hydroxystearic acid], the melting point was found to be 75 °C. `N[C@H](Cc1ccccc1)C(=O)O` [D-Phenylalanine] displayed a melting point of 274 °C. To `COc1cc(Cc2cnc(N)nc2N)cc(OC)c1OC` [trimethoprim] belongs 200 °C. The compound `Cc1cc(C)nc(N)n1` [2-amino-4,6-dimethylpyrimidine] came in with a melting point of 153 °C.

As to `Cc1ccc(N)cc1C` [3,4-dimethylaniline], the melting point was found to be 51 °C.

Regarding `CC(=O)c1ccc(Cl)c(Cl)c1` [3',4'-dichloroacetophenone], the melting point was determined as 74 °C. The figure for `c1ccc2c(c1)cc1ccc3cccc4ccc2c1c34` [3,4-benzopyrene] is 179 °C; for `ClCc1ccc(Br)cc1` [4-bromobenzyl chloride] it is 40 °C. On to `C#CCCCCCCCCCCCCCC` [1-hexadecyne], for which the melting point amounted to 15 °C. In turn, `O=C(Cl)c1cc([N+](=O)[O-])cc([N+](=O)[O-])c1` [3,5-Dinitrobenzoyl chloride] had a melting point of 69 °C. The figure for `CCC(C(=O)NC(=O)NC(C)=O)c1ccccc1` (stereo not drawn) [acetylpheneturide] is 100 °C. The figure for `NCc1cccc2c(Br)cccc12` [1-(5-bromonaphthalen-1-yl)methanamine] is 139 °C; for `Nc1ccc(/N=N/c2ccc(/N=N/c3ccc(/N=N/c4ccc(/N=N/c5ccc(N)cc5)cc4)cc3)cc2)cc1` it is 292 °C. The figure for `O=C(O)CCCCCC(=O)O` [Pimelic Acid] is 106 °C; for `Fc1ccccc1-c1ccccc1` [2-fluorobiphenyl] it is 74 °C. In the case of `CC(=O)c1ccc(-c2ccccc2)cc1` [p-acetylbiphenyl], the melting point turned out to be 122 °C. For the compound `Cc1ccc(C(=O)c2ccccc2)cc1` [(4-Methylphenyl)(phenyl)methanone], the melting point was 57 °C. The compound `CCC(=O)c1cc(F)c(O)c(F)c1` [3',5'-difluoro-4'-hydroxypropiophenone] showed a melting point of 130 °C. In the case of `CCCCCCCC(=O)CC` [3-decanone], the melting point is -4 °C. In turn, `O=C1c2ccccc2C(=O)N1CCCCBr` [N-(4-bromobutyl)phthalimide] came in with a melting point of 79 °C.

Compound `O=C(O)c1ccc(F)cc1` [4-fluorobenzoic acid] yielded a melting point of 185 °C.

For `Nc1ccc(S(=O)(=O)Nc2ccccn2)cc1` [4-Amino-N-(pyridin-2-yl)benzenesulfonamide], the melting point is 192 °C. To `O=[N+]([O-])c1ccc2c(c1)-c1cccc([N+](=O)[O-])c1C2` [1,6-dinitro-9H-fluorene] belongs 286 °C; to `O=C(O)c1ccccc1Nc1cccc(C(F)(F)F)c1` [flufenamic acid], 125 °C.

`CC12C=CC(O1)C1C(=O)OC(=O)C12` (stereo not drawn) registered a melting point of 70 °C. Regarding `O=C(O)c1ccc(Cl)c(Cl)c1` [3,4-Dichlorobenzoic acid], the melting point was found to be 208 °C. For `CCCC(=O)CCC` [Heptan-4-one], the melting point is -33 °C. `Clc1cccnc1Cl` [2,3-dichloropyridine] yielded a melting point of 67 °C. The figure for `CC1=NN(CN2CCCCC2)C(=O)/C1=N\Nc1ccc(Cl)cc1Cl` is 123 °C. To `Nc1cccc(-n2ccccc2=O)c1` [1-(3-Aminophenyl)pyridin-2(1H)-one] belongs 183 °C. The figure for `CCCC(=O)OCC` [ethyl_butyrate] is -93 °C. In the case of `COc1cc(/C=C/C(=O)CC(=O)/C=C/c2ccc(O)c(OC)c2)ccc1O` [curcumin], the melting point was found to be 173 °C. As to `Nc1ccc(O)c2c1C(=O)c1ccccc1C2=O` [1-amino-4-hydroxyanthraquinone], the melting point came out at 208 °C. Regarding `CN(C)c1ccc(N=O)cc1` [N,N-Dimethyl-4-nitrosoaniline], the melting point stood at 86 °C. To `CC(=O)N[C@H]1[C@H](OC(C)=O)O[C@H](COC(C)=O)[C@@H](OC(C)=O)[C@@H]1OC(C)=O` [beta-D-glucosamine pentaacetate] belongs 187 °C.

In the case of `COc1ccc(NC(=O)N(C)C)cc1Cl` [Metoxuron], the melting point was 127 °C.

As to `CCCCCCCCCC(C)=O` [2-undecanone], the melting point worked out at 13 °C. `O=C(/C=C/c1ccc(O)cc1)c1ccccc1` [4-hydroxychalcone] displayed a melting point of 184 °C.

Compound `O=C1CCN(C(=O)c2ccccc2)CC1` [1-benzoyl-4-piperidone] showed a melting point of 55 °C. To `CC(=O)OC1CCC2(C)C(CCC3C4=C(CCC32)C(C)(C#Cc2ccccc2)CC4)C1` (stereo not drawn) [10,17-dimethyl-17-(phenylethynyl)gon-13-en-3-yl acetate] belongs 136 °C. The figure for `Cc1ccc(CCl)cc1` [4-methylbenzyl chloride] is 5 °C; for `Oc1cccc2[nH]ccc12` [4-hydroxyindole] it is 98 °C; for `c1ccc(CN(Cc2ccccc2)c2ccccc2)cc1` [N,N-dibenzylaniline] it is 70 °C. `CC` [ethane] registered a melting point of -183 °C. The compound `Cc1ccc(CCc2ccc(C)cc2)cc1` [1,2-di(p-tolyl)ethane] had a melting point of 81 °C. To `CNC=O` [n-methylformamide] belongs -40 °C; to `ClC(Cl)c1ccccc1` [benzal chloride], -16 °C; to `CCCCCCN` [Hexan-1-amine], -23 °C. To `N#Cc1cc(C#N)c(C#N)cc1C#N` [Benzene-1,2,4,5-tetracarbonitrile] belongs 265 °C; to `Clc1ccc(COC(Cn2ccnc2)c2ccc(Cl)cc2Cl)cc1` (stereo not drawn) [econazole], 87 °C. The figure for `NC(=O)OCC(COC(N)=O)c1ccccc1` [Felbamate] is 152 °C; for `CCCCc1ccccc1` [Butylbenzene] it is -88 °C; for `Oc1cccc2[nH]nnc12` [4-hydroxy-1h-benzotriazole] it is 222 °C. Compound `CC(C)[N+](=O)[O-]` [2-Nitropropane] registered a melting point of -93 °C.

`CCC#CCCCC` [3-octyne]: the melting point was -104 °C.

As to `[2H]c1c([2H])c([2H])c(-c2c([2H])c([2H])c(-c3c([2H])c([2H])c([2H])c([2H])c3[2H])c([2H])c2[2H])c([2H])c1[2H]` [(~2~H_14_)-1,1':4',1''-Terphenyl], the melting point was found to be 213 °C. To `Cc1c2ccccc2cc2ccccc12` [9-methylanthracene] belongs 78 °C and 80 °C; to `O=C(O)c1cccnc1` [Nicotinic acid], 237 °C. The figure for `C=CC1=C(/C=N/Nc2ccc([N+](=O)[O-])cc2[N+](=O)[O-])CCCC1` is 153 °C; for `Cc1cccc(-c2ccccc2)c1` [3-methylbiphenyl] it is 5 °C; for `O=C(CCl)OC(=O)CCl` [chloroacetic anhydride] it is 58 °C.

In the case of `BrC(c1ccccc1)c1ccccc1` [benzhydryl bromide], the melting point amounted to 39 °C. `COC(=O)c1ccccc1NC(=O)c1ccccc1` [methyl 2-(benzoylamino)benzoate]: the melting point was 99 °C. The figure for `O=C(CCc1ccccc1)/C(=N/O)c1ccccc1` [(1E)-1,4-diphenylbutane-1,2-dione 1-oxime] is 130 °C; for `Clc1cccc(Cl)c1NC1=NCCN1` [Clonidine] it is 130 °C; for `O=Cc1ccc(Oc2ccccc2)cc1` [4-phenoxybenzaldehyde] it is 25 °C.

For `O=C1CC(C(=O)O)c2ccccc21` (stereo not drawn) [3-oxoindane-1-carboxylic acid], the melting point came out at 116 °C. `CC(=O)/C(C)=N\O` [(3Z)-3-(Hydroxyimino)butan-2-one] yielded a melting point of 75 °C. To `Oc1cccc(Br)c1` [m-bromophenol] belongs 31 °C.

`Cc1ccccc1-c1ccccc1` [2-methylbiphenyl] yielded a melting point of 0 °C. To `COC(=O)c1ccc(N)cc1` [methyl 4-aminobenzoate] belongs 114 °C; to `CC(=O)/N=c1\sc(C(C)=O)nn1-c1ccc(F)cc1`, 158 °C; to `c1cc2c3c(c1)ccc1cccc(c13)C2` [4H-Cyclopenta[def]phenanthrene], 116 °C.

For `Cc1ccc(S(=O)(=O)CCCl)cc1` [2-chloroethyl p-tolyl sulfone], the melting point came to 79 °C. To `O=C(O)[C@@H](O)[C@H](O)C(=O)O` [(2S,3S)-2,3-Dihydroxysuccinic acid] belongs 173 °C; to `O=c1c(O)c(-c2ccccc2O)oc2ccccc12` [2',3-dihydroxyflavone], 203 °C; to `CCCCCCSc1cc(N(NC(=O)OC(C)(C)C)C(=O)OC(C)(C)C)cc(SCCCCCC)c1SCCCCCC`, 74.5 °C.
